Data as given in patent publication US7285555B2, “6-aryl-7-halo-imidazo[1,2-a]pyrimidines as anticancer agents” (Wyeth Holdings Corporation, priority 2003, dated 2007).

How the values were obtained:
MAP-rich tubulin = assay: Tubulin polymerization test procedure with MAP-rich tubulin; type: biochemical, bovine; settings: MAP-rich tubulin with 1 mM GTP, compound 0.3 μM, at 20 min
Description: (§1) Medium is RPMI-1640 with L-glutamine, supplemented with 10% heat-inactivated fetal calf serum, 100 units/mL penicillin, and 100 μg/mL streptomycin (Gibco, Grand Island, N.Y.). Microtubule-associated protein (MAP)-rich tubulin, containing about 70% tubulin and 30% MAPs (#ML113), and highly purified tubulin (>99% pure, #TL238), both from bovine brain, are obtained from Cytoskeleton, Inc., Denver, Colo. PEM buffer (80 mM piperazine-N,N′-bis[2-ethanesulfonic acid], pH 6.9, 1 mM ethylene glycol-bis(β-aminoethyl ether)-N,N,N′,N′-tetraacetic acid, 1 mM magnesium chloride) and guanosine 5′-triphosphate (GTP) are also obtained from Cytoskeleton. [^3H]paclitaxel, specific activity 14.7 Ci/mmol, is purchased from Moravek Biochemicals (Brea, Calif.). [^3H]vinblastine, specific activity 9.60 Ci/mmol and MicroSpin G-50 columns are obtained from Amersham Biosciences (Piscataway, N.J.). […] Other reagents are obtained from Sigma (St. Louis, Mo.).
MAP-rich tubulin is dissolved in ice-cold PEM buffer containing 1 mM GTP (GPEM buffer) at a concentration of 1.3 mg/mL. The solution is centrifuged at top speed in an Eppendorf model 5415C microcentrifuge (Brinkmann Instruments, Westbury, N.Y.) for 10 min at 40 immediately before use. The tubulin solution is added to wells of a ½-area 96-well plate (Costar No. 3696, Corning, Inc., Corning, N.Y.) already containing the compounds of interest. Each compound is tested in duplicate at a final concentration of 0.3 μM in a volume of 110 μL per well. The final DMSO concentration in all wells is 0.3%. Control reactions, which receive compound solvent only, are done in quadruplicate. The plate is put in a SpectraMax Plus plate reader (Molecular Devices Corp. Sunnyvale, Calif.) thermostated at 240 and the absorbance of each well at 340 nm, a measure of the appearance of turbidity due to tubulin polymer formation, is determined every minute for 60 minutes. The absorbance at time 0 for each well is subtracted from each of the subsequent absorbance readings for that well, and then the duplicates are averaged.
In this assay, control reactions with MAP-rich tubulin show an S-shaped absorbance profile characterized by three phases: first, a lag phase during which no change in absorbance occurs; second, a polymerization phase in which absorbance increases; and third, a plateau phase in which absorbance has reached a maximum and little or no further change occurs. Polymerization enhancers such as paclitaxel and docetaxel shorten or eliminate the lag phase, increase the rate of the polymerization phase, and often increase the height of the plateau. […] This has been expressed quantitatively in Table 6 by dividing the mean A340 of each sample at 20 min by the mean A340 of the control at 20 min to give a fold enhancement over control. […]

pure tubulin = assay: Tubulin polymerization test procedure with pure tubulin; type: biochemical, bovine; settings: pure tubulin without added GTP
Description: as §1
The procedure with pure tubulin is similar except for the following changes. […] The supernatant after centrifugation is dispensed to a ½-area 96-well plate already containing compounds. Each compound is tested in duplicate at a final concentration of 24.3 μM. The plate reader μs thermostated at 35°.

[1] = test system: highly purified tubulin (tubulin heterodimer); assay: Competitive binding test procedure, [3H]vinblastine; set-up: species or system bovine; settings: competitor 100 μM, [3H]vinblastine 100 nM
Description: as §1
(§2) The binding of examples of this invention to highly purified tubulin is studied by competitive inhibition methods. […] To study possible competition at the taxane site, on the other hand, polymerized tubulin (microtubules) is used because paclitaxel binds preferentially to microtubules.
(§3) Highly purified tubulin is dissolved in PEM buffer without GTP and used at a final concentration of 1.0 to 1.3 mg/ml (10 to 13 μM). […] These solutions are incubated at 240 for 1 hr and then applied to MicroSpin G-50 columns which are centrifuged for 2 min at 3000 rpm in an Eppendorf 5415C microfuge. An aliquot of each column effluent (containing tubulin and bound radioligand) is mixed with scintillation fluid and counted in a liquid scintillation spectrometer. […] Quadruplicates are averaged, and the ability of the competitor to inhibit the binding of the radioligand is expressed as a percentage of control binding in the absence of any competitor.

[2] = test system: highly purified tubulin (tubulin heterodimer); assay: Competitive binding test procedure, [3H]colchicine; set-up: species or system bovine; settings: competitor 100 μM, [3H]colchicine 50 nM
Description: as §1, §2, §3

[3] = test system: polymerized tubulin (microtubules); assay: Competitive binding test procedure, [3H]paclitaxel; set-up: species or system bovine; settings: competitor 20 μM, [3H]paclitaxel 2.1 μM
Description: as §1, §2
For competition with [^3H]paclitaxel, highly purified tubulin is dissolved in PEM buffer containing 0.75 M glutamate and 25 μM dideoxy-GTP; final protein concentration is 0.25 to 0.35 mg/mL (2.5 to 3.5 μM). These conditions foster the rapid formation of short, stable microtubule polymers (Hamel, E., del Campo, A. A., and Lin, C. M. Stability of tubulin polymers formed with dideoxyguanosine nucleotides in the presence and absence of microtubule-associated proteins. J. Biol. Chem., 259: 2501-2508, 1984). […] The reactions are then centrifuged at top speed in an Eppendorf 5415C microfuge for 20 min at room temperature in order to pellet the microtubule protein. Triplicate aliquots of each supernatant are mixed with scintillation fluid and counted in a liquid scintillation spectrometer. From the amount of radioactivity in the supernatants and the measured total starting radioactivity, the amount of [^3H]paclitaxel bound to pelleted microtubule protein is calculated. The ability of each competitor to inhibit radioligand binding to pelleted protein is expressed as a percent of controls without any competitor.

## CC[C@]1(O)C[C@H]2CN(CCc3c([nH]c4ccccc34)[C@@](C(=O)OC)(c3cc4c(cc3OC)N(C=O)[C@H]3[C@@](O)(C(=O)OC)[C@H](OC(C)=O)[C@]5(CC)C=CCN6CC[C@]43[C@@H]65)C2)C1 [Vincristine, reference compound]
MAP-rich tubulin
  A340 Compound / A340 Control (fold enhancement over control): 0.5
Pure tubulin
  polymerization of pure tubulin without GTP (in words): no activity
[1]
  [3H]Vinblastine binding, Mean, percent of binding to control without competitor: 5%
[2]
  [3H]Colchicine binding, Mean, percent of binding to control without competitor: 99%
[3]
  [3H]Paclitaxel binding, Mean, percent of binding to control without competitor: 22%
